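Following 48 hours of exposure in 96-well plates, responses at five concentrations were used to interpolate endpoints linearly. GI50 marks 50% less growth.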 The source made the active and inactive calls. Cut-off read from the data, not from the text of the source: active = GI50 up to about 1.1 µM and inactive = higher.
Tests used:
Experiment in all cases: NCI anticancer screen, dose series, 48 h
HCC 2998 = tested on: HCC 2998
SNB-19 = tested on: SNB-19
KM12 = tested on: KM12
U-251 = tested on: U-251
Malme-3M = tested on: Malme-3M
CAKI-1 = tested on: CAKI-1
HCT-15 = tested on: HCT-15
IGROV-1 = tested on: IGROV-1
SF-268 = tested on: SF-268
OVCAR-4 = tested on: OVCAR-4
SW-620 = tested on: SW-620
SK-OV-3 = tested on: SK-OV-3
MOLT-4 = tested on: MOLT-4
M14 = tested on: M14
MDA-N = tested on: MDA-N
A498 = tested on: A498
SF-539 = tested on: SF-539
SK-MEL-5 = tested on: SK-MEL-5
TK-10 = tested on: TK-10
DMS-273 = tested on: DMS-273

SMILES	GI50 (HCC 2998)	GI50 (SNB-19)	GI50 (KM12)	GI50 (U-251)	GI50 (Malme-3M)	GI50 (CAKI-1)	GI50 (HCT-15) [µM]	GI50 (IGROV-1)	GI50 (SF-268)	GI50 (OVCAR-4)	GI50 (SW-620)	GI50 (SK-OV-3)	GI50 (MOLT-4)	GI50 (M14)	GI50 (MDA-N)	GI50 (A498)	GI50 (SF-539)	GI50 (SK-MEL-5)	GI50 (TK-10)	GI50 (DMS-273)
N=C(N)/N=C(\N)Nc1ccc(C(=O)O)cc1	> 100 µM (inactive)	> 100 µM (inactive)	> 100 µM (inactive)	> 100 µM (inactive)	> 100 µM (inactive)	> 100 µM (inactive)	> 100	> 100 µM (inactive)	> 100 µM (inactive)	> 100 µM (inactive)	> 100 µM (inactive)	> 100 µM (inactive)	> 100 µM (inactive)	> 100 µM (inactive)	> 100 µM (inactive)	> 100 µM (inactive)	> 100 µM (inactive)	> 100 µM (inactive)	> 100 µM (inactive)	
CC(C)(C)OC(=O)N1N=NC2C1C1CC(OCc3ccccc3)(OCc3ccccc3)C2O1 (centres undefined)	> 100 µM (inactive)		81.8 µM (inactive)	55.1 µM (inactive)	65.8 µM (inactive)	> 100 µM (inactive)	31.3	> 100 µM (inactive)	35.1 µM (inactive)	32.5 µM (inactive)	14.7 µM (inactive)	> 100 µM (inactive)	7.82 µM (inactive)	44.1 µM (inactive)		> 100 µM (inactive)	> 10 µM (inactive)	16.8 µM (inactive)		52.2 µM (inactive)
CCOC(=O)C(=O)Nc1nc2c(OCC)cccc2s1	> 100 µM (inactive)	> 100 µM (inactive)	> 100 µM (inactive)	> 100 µM (inactive)	> 100 µM (inactive)	> 100 µM (inactive)	> 100	> 100 µM (inactive)	> 100 µM (inactive)	> 100 µM (inactive)	> 100 µM (inactive)	> 100 µM (inactive)	> 100 µM (inactive)	> 100 µM (inactive)		> 100 µM (inactive)	> 100 µM (inactive)	> 100 µM (inactive)	> 100 µM (inactive)	> 100 µM (inactive)
O=C(Nc1cccc(NC(=O)c2cc(=O)c3ccccc3o2)n1)c1cc(=O)c2ccccc2o1	60.1 µM (inactive)	68.9 µM (inactive)	17.9 µM (inactive)	66.8 µM (inactive)	> 100 µM (inactive)	> 100 µM (inactive)	4.06	38.2 µM (inactive)	13.5 µM (inactive)	44.6 µM (inactive)	> 100 µM (inactive)	> 100 µM (inactive)	49.4 µM (inactive)	12.3 µM (inactive)		75.5 µM (inactive)	20.3 µM (inactive)	64.9 µM (inactive)	> 100 µM (inactive)	9.64 µM (inactive)
COc1ccc(CNc2nc3ccccc3nc2-c2cccs2)cc1OC	30.8 µM (inactive)	> 100 µM (inactive)		75.5 µM (inactive)	45.1 µM (inactive)		34.8		47.4 µM (inactive)		93.3 µM (inactive)		12.6 µM (inactive)				41 µM (inactive)		74 µM (inactive)	50.5 µM (inactive)
Cc1ccccc1NC(=O)C(=O)C(c1cnc2ccc([N+](=O)[O-])cc2n1)[N+](=O)[O-] (centres undefined)	> 100 µM (inactive)	> 100 µM (inactive)	> 100 µM (inactive)	> 100 µM (inactive)	> 100 µM (inactive)	> 100 µM (inactive)	> 100	> 100 µM (inactive)	> 100 µM (inactive)	> 100 µM (inactive)	> 100 µM (inactive)	> 100 µM (inactive)	66.1 µM (inactive)	> 100 µM (inactive)		> 100 µM (inactive)	> 100 µM (inactive)	87.3 µM (inactive)	> 100 µM (inactive)	44.5 µM (inactive)
CC1=C2CCCC2=C/C(=N/Nc2ccc([N+](=O)[O-])cc2[N+](=O)[O-])CC1		> 100 µM (inactive)	> 100 µM (inactive)	> 100 µM (inactive)	> 100 µM (inactive)	> 100 µM (inactive)		> 100 µM (inactive)	> 100 µM (inactive)	> 100 µM (inactive)	> 100 µM (inactive)	> 100 µM (inactive)	> 100 µM (inactive)	> 100 µM (inactive)			> 100 µM (inactive)	> 100 µM (inactive)	> 100 µM (inactive)	> 100 µM (inactive)
N#C/C1=C(\N)CCSSSC1	54.8 µM (inactive)	37.2 µM (inactive)	51.1 µM (inactive)	31.4 µM (inactive)	34.5 µM (inactive)	58.7 µM (inactive)	27.9	29.7 µM (inactive)	42.9 µM (inactive)	33.9 µM (inactive)	44.6 µM (inactive)	52.5 µM (inactive)	69.3 µM (inactive)	28.8 µM (inactive)		28.9 µM (inactive)	33.4 µM (inactive)	26.1 µM (inactive)	> 100 µM (inactive)	33.3 µM (inactive)

From ChEMBL document CHEMBL1201862, “PubChem BioAssay data set” (2004)
